Results on two molecules are retold here after US8999983B2, “Modulators of Hec1 activity and methods therefor” (Taivex Therapeutics Corporation, priority 2011, dated 2015).

pIC50: −log10 of the molar value.

One series relates to MDA-MB-231 xenograft. Kind of series: Mouse xenograft study, MDA-MB-231 breast cancer. The settings on record: MDA-MB-231 breast cancer xenograft, nude mice. It counts as in vivo.
A further series relates to BT474 xenograft. Put plainly: Mouse xenograft study, BT474 breast cancer. It is filed as in vivo, nude mice. Particulars: BT474 breast cancer xenograft, nude mice. Here is the method:
(§1) Mouse Xenograft Studies: Xenograft studies adapted from a previous published protocol (Wu et al, Cancer Res. 2008 Oct. 15; 68(20):8393-9). Female BALB/c nude (nu/nu) mice (5-8 weeks) were obtained from Lasco (Industrial Park, Tai-Ping Area, Taichung City, Taiwan). The animals were maintained under specific pathogen-free conditions, and food and water were supplied ad libitum. Housing and all procedures involving animals were performed according to protocols approved by the IACUC in DCB. Nude mice were inoculated with 17-β-estradiol pellets 72 to 96 h before implantation of BT-474 cells. For subcutaneous implantation of BT-474 cells, cells (1×10^7 in matrix gel/animal) were injected subcutaneously into the right subaxillary region. Treatment started when average tumor volume reached about 200 mm^3; mice were treated (p.o., QD/28 cycles in total) with vehicle A (0.5% methylcellulose), or candidate compounds formulated in vehicle A (10-50 mg/kg body weight). Perpendicular diameter measurement of each tumor were made with digital calipers and the volume of the tumor calculated using formula (L×W×W)/2, in which L and W represent the length and the width, respectively. Body weights were measured three times weekly.
(§2) The in vivo effectiveness of contemplated compounds in the reduction of tumor volume in nude mice is readily apparent.
(§3) Development of resistance to treatment in advanced stage tumors is a well known phenomenon. Activity of select Hec1 inhibitor in such late stage tumors was determined by re-dosing of BT474 xenografted animals that had previously subjected to 35 days of treatment with 110095 (compound 27 of Table 1). Re-treatment with 110095 was starting on day 42 and continued for 21 days.

A further series deals with Huh-7 xenograft. Put plainly: Mouse xenograft study, Huh-7 liver cancer. It is filed as in vivo. Particulars: Huh-7 liver cancer xenograft, nude mice.
Series [1] can be described thus: Body weight in mouse xenograft studies. Particulars: xenograft studies FIG. 7A-7D, nude mice. It is filed as in vivo, nude mice. Here is the method:
as §1, §2, §3

A further series relates to MDA-MB-468. Kind of series: Antiproliferation assay (MTS), MDA-MB-468 cells. It counts as cell-based. Particulars: Homo sapiens, MDA-MB-468, 96 h, Table 2, read-out: Antiproliferative IC50 MDA-MB-468. In short, it runs like this: (§4)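 Cells seeded after overnight attachment were treated in triplicate for 96 h at 37 °C, 5% CO2, final DMSO below 1%. Viability read by MTS absorbance; concentration-response curves fitted by linear regression against DMSO controls.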

For the next series, the system named is MDA-MB-231. Kind of series: Antiproliferation assay (MTS), MDA-MB-231 cells. It counts as cell-based. Particulars: Homo sapiens, MDA-MB-231, 96 h, read-out: Antiproliferative IC50 MDA-MB-231, Table 2. In short, it runs like this:
as §4

The test system of a further series is cancer cells. Put plainly: DNA content analysis (propidium iodide, FACS). It counts as cell-based. Here is the method:
DNA Content Analysis: Cells were plated in a 10-cm culture plate and cultured overnight. Cells were incubated with the compound for the indicated time and collected at the indicated time points. Cells were fixed with 70% ethanol overnight, stained with propidium iodide solution (1.25 mg/ml propidium iodide (Sigma) and 20 μl/ml […] in PBS) and subjected to fluorescence activated cell sorting (FACS). The results were analyzed by Cell Quest software (BD Biosciences, San Jose Calif. 95131 USA).

For `COc1ccc(Oc2cc(C)c(-c3csc(NC(=O)c4ccncc4)n3)c(C)c2)cc1` [II-95, N-(4-(4-(4-Methoxyphenoxy)-2,6-dimethylphenyl)thiazol-2-yl)isonicotinamide], the xenograft tumor outgrowth result with MDA-MB-231 xenograft, in the series with BT474 xenograft and in the series with Huh-7 xenograft was “inhibition of xenograft tumor outgrowth” in each case. The body weight result in series [1] is recorded as “body weight remained constant”.

Usually pIC50 stands for −log10 of the IC50, conventionally taken in molar units. As to `COc1ccc(Oc2cc(C)c(-c3csc(NC(=O)c4ccnc(F)c4)n3)c(C)c2)cc1` [II-98, 2-Fluoro-N-(4-(4-(4-methoxyphenoxy)-2,6-dimethylphenyl)thiazol-2-yl)isonicotinamide], the pIC50 was 7.40 with MDA-MB-468 and 7.70 in the series on MDA-MB-231. Moreover, in the series with cancer cells, the “sub-G1 population (apoptotic cells)” value is on record as “increase in the sub-G1 population”.
